The values that follow come from US12539292B2, “BRM targeting compounds and associated methods of use” (Arvinas Operations, Inc., priority 2018, dated 2026).

Read-outs that look alike come from different tables or passages of the source.

The target in this test is T1, BRM (Homo sapiens, UniProt P51531).
T1 construct: In-Cell Western Screen of BRM Degradation in SW1573 Cells; endogenous in cells; host or cells: SW1573
As to the kind of experiment: In-cell Western screen of BRM degradation in SW1573 cells (Dmax and DC50). It is filed as cell-based. The gist of the method: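 Adherent SW1573 cultures exposed to test compounds for 18-20 h were processed for in-cell Western after PFA fixation and detergent permeabilization. BRM degradation was reported as Dmax and DC50.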

[1] abbreviates: BRM degradation, SW1573 cells, read-out: DC50.
The mark [2] stands for this setting: SW1573, % degraded, when tested at the top concentration of between 0.3 and 10 μM, read-out: BRM Dmax (%).
Where [3] appears, read: target protein degradation, read-out: BRM DC50.
[4] abbreviates: BRM degradation, SW1573 cells, read-out: Dmax (% degraded).
[5] abbreviates: BRM degradation, SW1573 cells, Table 2D, read-out: *DC50.
[6] abbreviates: degradation of BRM, read-out: BRM DC50.

T1 sequence (P51531 whole entry): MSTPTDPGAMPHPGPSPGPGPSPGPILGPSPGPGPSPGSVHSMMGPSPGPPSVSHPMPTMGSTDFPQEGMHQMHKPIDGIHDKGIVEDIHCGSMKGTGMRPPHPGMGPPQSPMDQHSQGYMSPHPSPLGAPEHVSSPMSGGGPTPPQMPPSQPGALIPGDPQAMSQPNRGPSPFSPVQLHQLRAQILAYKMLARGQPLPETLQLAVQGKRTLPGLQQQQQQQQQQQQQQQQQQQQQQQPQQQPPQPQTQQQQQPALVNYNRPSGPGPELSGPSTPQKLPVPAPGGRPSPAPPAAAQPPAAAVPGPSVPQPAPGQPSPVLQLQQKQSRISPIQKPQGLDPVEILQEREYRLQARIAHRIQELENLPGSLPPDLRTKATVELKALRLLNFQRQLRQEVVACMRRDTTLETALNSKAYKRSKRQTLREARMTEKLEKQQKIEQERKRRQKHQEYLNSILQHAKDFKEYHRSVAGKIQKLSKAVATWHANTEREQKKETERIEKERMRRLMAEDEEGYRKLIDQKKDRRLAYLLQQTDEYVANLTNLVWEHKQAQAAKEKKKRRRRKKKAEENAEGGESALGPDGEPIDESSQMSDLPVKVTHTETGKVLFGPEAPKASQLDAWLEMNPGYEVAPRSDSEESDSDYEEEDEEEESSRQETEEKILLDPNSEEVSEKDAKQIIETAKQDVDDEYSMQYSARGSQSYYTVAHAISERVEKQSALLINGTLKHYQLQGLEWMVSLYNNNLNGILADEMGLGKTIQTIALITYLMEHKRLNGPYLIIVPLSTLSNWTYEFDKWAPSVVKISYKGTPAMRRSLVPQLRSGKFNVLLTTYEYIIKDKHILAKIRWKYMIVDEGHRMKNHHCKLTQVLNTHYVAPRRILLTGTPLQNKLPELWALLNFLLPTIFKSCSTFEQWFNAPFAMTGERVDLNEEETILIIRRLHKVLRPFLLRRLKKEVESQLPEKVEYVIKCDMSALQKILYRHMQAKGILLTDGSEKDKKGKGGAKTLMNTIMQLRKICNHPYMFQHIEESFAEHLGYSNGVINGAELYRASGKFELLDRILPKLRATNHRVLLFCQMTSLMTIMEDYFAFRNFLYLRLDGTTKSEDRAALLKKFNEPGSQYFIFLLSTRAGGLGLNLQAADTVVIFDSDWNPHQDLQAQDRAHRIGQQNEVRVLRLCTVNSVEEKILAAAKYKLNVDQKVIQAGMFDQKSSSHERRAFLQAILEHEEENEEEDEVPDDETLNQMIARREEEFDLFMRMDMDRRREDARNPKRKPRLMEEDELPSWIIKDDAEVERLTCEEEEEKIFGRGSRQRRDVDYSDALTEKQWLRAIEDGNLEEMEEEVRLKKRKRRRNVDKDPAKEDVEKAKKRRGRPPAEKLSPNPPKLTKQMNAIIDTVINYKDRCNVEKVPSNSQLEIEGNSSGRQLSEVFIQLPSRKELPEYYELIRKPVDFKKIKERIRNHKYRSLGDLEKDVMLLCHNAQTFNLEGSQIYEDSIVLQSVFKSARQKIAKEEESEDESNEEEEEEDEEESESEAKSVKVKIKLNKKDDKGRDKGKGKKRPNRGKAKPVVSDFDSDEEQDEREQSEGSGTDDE

Take `Cc1ncsc1-c1ccc([C@H](C)NC(=O)[C@@H]2C[C@@H](O)CN2C(=O)[C@@H](c2cc(OCCCN3CCC(O[C@H]4C[C@H](Oc5cc(N6C7CCC6CN(c6cc(-c8ccccc8O)nnc6N)C7)ccn5)C4)CC3)no2)C(C)C)cc1` [compound 218, (2S,4R)-1-((2R)-2-(3-(3-(4-((1r,3R)-3-((4-(3-(3-amino-6-(2-hydroxyphenyl)pyridazin-4-yl)-3,8-diazabicyclo[3.2.1]octan-8-yl)pyridin-2-yl)oxy)cyclobutoxy)piperidin-1-yl)propoxy)isoxazol-5-yl)-3-methylbutanoyl)-4-hydroxy-N-((S)-1-(4-(4-methylthiazol-5-yl)phenyl)ethyl)pyrrolidine-2-carboxamide]: under setting [1], the DC50 is less than 2.5 nM. In addition, the Dmax (BRM degradation, SW1573 cells, tested at the top concentration of between 0.3 and 10 μM, read-out: Dmax (%) (% degraded)) is greater than 75%. On to `Cc1ncsc1-c1ccc([C@H](C)NC(=O)[C@@H]2C[C@@H](O)CN2C(=O)[C@@H](c2cc(OCCN3CCC(O[C@H]4C[C@H](OCC#CCn5cc(-c6cc(-c7ccccc7O)nnc6N)cn5)C4)CC3)no2)C(C)C)cc1` [compound 395, (2S,4R)-1-((R)-2-(3-(2-(4-((1r,3R)-3-((4-(4-(3-amino-6-(2-hydroxyphenyl)pyridazin-4-yl)-1H-pyrazol-1-yl)but-2-yn-1-yl)oxy)cyclobutoxy)piperidin-1-yl)ethoxy)isoxazol-5-yl)-3-methylbutanoyl)-4-hydroxy-N-((S)-1-(4-(4-methylthiazol-5-yl)phenyl)ethyl)pyrrolidine-2-carboxamide], for which the Dmax under setting [2] is greater than 75%. The DC50 under setting [3] is less than 2.5 nM. Take `CC(C)[C@@H](C(=O)N1C[C@H](O)C[C@H]1C(=O)N[C@@H](C)c1ccc(C#N)cc1)c1cc(N2CCC(CN3CCC(O[C@H]4C[C@H](Oc5cc(N6C7CCC6CN(c6cc(-c8ccccc8O)nnc6N)C7)ccn5)C4)CC3)CC2)no1` [compound 640, (2S,4R)-1-((2R)-2-(3-(4-((4-((1r,3r)-3-((4-(3-(3-amino-6-(2-hydroxyphenyl)pyridazin-4-yl)-3,8-diazabicyclo[3.2.1]octan-8-yl)pyridin-2-yl)oxy)cyclobutoxy)piperidin-1-yl)methyl)piperidin-1-yl)isoxazol-5-yl)-3-methylbutanoyl)-N-((S)-1-(4-cyanophenyl)ethyl)-4-hydroxypyrrolidine-2-carboxamide]: the DC50 under setting [1] was less than 2.5 nM. Further, the Dmax under setting [4] was greater than 75%.

On to `COc1nc(-c2scnc2C)c(F)cc1[C@@H](C)NC(=O)[C@@H]1C[C@@H](O)CN1C(=O)[C@H](c1cc(OCCN2CCC(O[C@H]3C[C@H](Oc4cc(N5C6CCC5CN(c5cc(-c7ccccc7O)nnc5N)C6)ccn4)C3)CC2)no1)C(C)C` [compound 563, (2S,4R)-1-((2S)-2-(3-(2-(4-((1r,3S)-3-((4-(3-(3-amino-6-(2-hydroxyphenyl)pyridazin-4-yl)-3,8-diazabicyclo[3.2.1]octan-8-yl)pyridin-2-yl)oxy)cyclobutoxy)piperidin-1-yl)ethoxy)isoxazol-5-yl)-3-methylbutanoyl)-N-((R)-1-(5-fluoro-2-methoxy-6-(4-methylthiazol-5-yl)pyridin-3-yl)ethyl)-4-hydroxypyrrolidine-2-carboxamide], for which, under setting [5], the DC50 was greater than 30 nM. Turning to `Cc1ncsc1-c1ccc([C@@H](NC(=O)[C@@H]2C[C@@H](O)CN2C(=O)[C@H](c2cc(OCCN3CCC(O[C@H]4C[C@H](Oc5cc(N6C7CCC6CN(c6cc(-c8ccccc8O)nnc6N)C7)ccn5)C4)CC3)no2)C(C)C)C(=O)N(C)C2CCC2)cc1` [compound 423, (2S,4R)-1-((2S)-2-(3-(2-(4-((1r,3S)-3-((4-(3-(3-amino-6-(2-hydroxyphenyl)pyridazin-4-yl)-3,8-diazabicyclo[3.2.1]octan-8-yl)pyridin-2-yl)oxy)cyclobutoxy)piperidin-1-yl)ethoxy)isoxazol-5-yl)-3-methylbutanoyl)-N-((R)-2-(cyclobutyl(methyl)amino)-1-(4-(4-methylthiazol-5-yl)phenyl)-2-oxoethyl)-4-hydroxypyrrolidine-2-carboxamide], under setting [6], the DC50 is greater than 30 nM.

For the compound `CC(C)[C@H](C(=O)N1C[C@H](O)C[C@H]1C(=O)N[C@@H](C)c1ccc(-n2ccccc2=O)cc1)c1cc(OCCN2CCC(O[C@H]3C[C@H](Oc4cc(N5C6CCC5CN(c5cc(-c7ccccc7O)nnc5N)C6)ccn4)C3)CC2)no1` [compound 372, (2S,4R)-1-((2S)-2-(3-(2-(4-((1r,3S)-3-((4-(3-(3-amino-6-(2-hydroxyphenyl)pyridazin-4-yl)-3,8-diazabicyclo[3.2.1]octan-8-yl)pyridin-2-yl)oxy)cyclobutoxy)piperidin-1-yl)ethoxy)isoxazol-5-yl)-3-methylbutanoyl)-4-hydroxy-N-((S)-1-(4-(2-oxopyridin-1(2H)-yl)phenyl)ethyl)pyrrolidine-2-carboxamide], the Dmax under setting [2] was greater than 75%. Moreover, under setting [3], the DC50 is greater than 30 nM.

Regarding `Cc1ncsc1-c1ccc([C@H](C)NC(=O)[C@@H]2C[C@@H](O)CN2C(=O)[C@@H](c2cc(OCC#Cc3ncc(O[C@H]4C[C@H](Oc5cc(N6C7CCC6CN(c6cc(-c8ccccc8O)nnc6N)C7)ccn5)C4)cn3)no2)C(C)C)cn1` [compound 400, (2S,4R)-1-((2R)-2-(3-((3-(5-((1r,3R)-3-((4-(3-(3-amino-6-(2-hydroxyphenyl)pyridazin-4-yl)-3,8-diazabicyclo[3.2.1]octan-8-yl)pyridin-2-yl)oxy)cyclobutoxy)pyrimidin-2-yl)prop-2-yn-1-yl)oxy)isoxazol-5-yl)-3-methylbutanoyl)-4-hydroxy-N-((S)-1-(6-(4-methylthiazol-5-yl)pyridin-3-yl)ethyl)pyrrolidine-2-carboxamide], the Dmax under setting [2] is greater than 75%. Moreover, under setting [3], the DC50 was less than 2.5 nM. With `Cc1ncsc1-c1ncc([C@H](C)NC(=O)[C@@H]2C[C@@H](O)CN2C(=O)[C@@H](c2cc(OCCN3CCC(O[C@H]4C[C@H](Oc5cc(N6C7CCC6CN(c6cc(-c8ccccc8O)nnc6N)C7)ccn5)C4)CC3)no2)C(C)C)cn1` [compound 430, (2S,4R)-1-((2R)-2-(3-(2-(4-((1r,3R)-3-((4-(3-(3-amino-6-(2-hydroxyphenyl)pyridazin-4-yl)-3,8-diazabicyclo[3.2.1]octan-8-yl)pyridin-2-yl)oxy)cyclobutoxy)piperidin-1-yl)ethoxy)isoxazol-5-yl)-3-methylbutanoyl)-4-hydroxy-N-((S)-1-(2-(4-methylthiazol-5-yl)pyrimidin-5-yl)ethyl)pyrrolidine-2-carboxamide], the Dmax under setting [2] was greater than 75%. The DC50 under setting [6] lay within 2.5 to 10 nM. Consider `Cc1ncsc1-c1ccc([C@H](C)NC(=O)[C@@H]2C[C@@H](O)CN2C(=O)[C@H](c2cc(OCCN3CCC(O[C@H]4C[C@H](Oc5cc(N6C7CCC6CN(c6cc(-c8ccccc8O)nnc6N)C7)ccn5)C4)CC3)no2)C(C)C)nn1` [compound 503, (2S,4R)-1-((2S)-2-(3-(2-(4-((1r,3S)-3-((4-(3-(3-amino-6-(2-hydroxyphenyl)pyridazin-4-yl)-3,8-diazabicyclo[3.2.1]octan-8-yl)pyridin-2-yl)oxy)cyclobutoxy)piperidin-1-yl)ethoxy)isoxazol-5-yl)-3-methylbutanoyl)-4-hydroxy-N-((S)-1-(6-(4-methylthiazol-5-yl)pyridazin-3-yl)ethyl)pyrrolidine-2-carboxamide], for which, where the note is “BRM degradation, read-out: BRM DC50”, the DC50 is greater than 30 nM. As to `Cc1ncsc1-c1ccc(CNC(=O)[C@@H]2C[C@@H](O)CN2C(=O)[C@H](c2cc(OCCOCCOCCOCCOc3cc(N4C5CCC4CN(c4cc(-c6ccccc6O)nnc4N)C5)ccn3)no2)C(C)C)cc1` [compound 29, (2S,4R)-1-[(2S)-2-(3-[[1-(4-[3-[3-amino-6-(2-hydroxyphenyl)pyridazin-4-yl]-3,8-diazabicyclo[3.2.1]octan-8-yl]pyridin-2-yl)-1,4,7,10-tetraoxadodecan-12-yl]oxy]-1,2-oxazol-5-yl)-3-methylbutanoyl]-4-hydroxy-N-[[4-(4-methyl-1,3-thiazol-5-yl)phenyl]methyl]pyrrolidine-2-carboxamide], the DC50 under setting [1] fell in the range of 10 to 30 nM. The Dmax (BRM degradation, SW1573 cells, when tested at the top concentration of between 0.3 and 10 μM, read-out: Dmax (%) (% degraded)) was greater than 75%. On to `CC(C)[C@H](C(=O)N1C[C@H](O)C[C@H]1C(=O)N[C@@H](C)c1ccc(-c2scnc2N)cc1)c1cc(N2CCC(CN3CCC(O[C@H]4C[C@H](Oc5cc(N6C7CCC6CN(c6cc(-c8ccccc8O)nnc6N)C7)ccn5)C4)CC3)CC2)no1` [compound 629, (2S,4R)-1-((2S)-2-(3-(4-((4-((1r,3r)-3-((4-(3-(3-amino-6-(2-hydroxyphenyl)pyridazin-4-yl)-3,8-diazabicyclo[3.2.1]octan-8-yl)pyridin-2-yl)oxy)cyclobutoxy)piperidin-1-yl)methyl)piperidin-1-yl)isoxazol-5-yl)-3-methylbutanoyl)-N-((S)-1-(4-(4-aminothiazol-5-yl)phenyl)ethyl)-4-hydroxypyrrolidine-2-carboxamide], for which the DC50 under setting [1] was 2.5 to 10 nM. Moreover, the maximal degradation (Dmax) under setting [4] was greater than 75%. On to `Cc1ncsc1-c1ccc([C@H](C)NC(=O)[C@@H]2C[C@@H](O)CN2C(=O)[C@@H](c2cc(N3CCC(CN4CCN(CC5CC(Oc6cc(N7C8CC[C@@H]7CN(c7cc(-c9ccccc9O)nnc7N)C8)ccn6)C5)CC4)CC3)no2)C(C)C)cc1` (stereo partly drawn) [compound 608, (2S,4R)-1-((2R)-2-(3-(4-((4-(((1r,3r)-3-((4-(3-(3-amino-6-(2-hydroxyphenyl)pyridazin-4-yl)-3,8-diazabicyclo[3.2.1]octan-8-yl)pyridin-2-yl)oxy)cyclobutyl)methyl)piperazin-1-yl)methyl)piperidin-1-yl)isoxazol-5-yl)-3-methylbutanoyl)-4-hydroxy-N-((S)-1-(4-(4-methylthiazol-5-yl)phenyl)ethyl)pyrrolidine-2-carboxamide], for which the “**Dmax (%) (% degraded)” value (BRM degradation, SW1573 cells, Table 2D) is “A (A > 75)”. Moreover, the DC50 under setting [5] was less than 2.5 nM.
